Experimental data from patent US20260274904A1, “ANTIMICROBIAL NCR2 PEPTIDES” (Donald Danforth Plant Science Center, priority 2019, published 2026).
In brackets after ≈: the same amount, converted by molar mass. Entries after “also recorded” stand apart in the source; their conditions may differ. Read-outs that look alike come from different tables or passages of the source. Where a SMILES comes first, the peptide text is derived from it.

B1: AFIQLSKPCISDKECSIVKNYRARCRKGYCVRRRIRAPKKVEPAFIQLSKPCISDKECSIVKNYRARCRKGYCVRRRIR (protein)
chain: AFIQLSKPCISDKECSIVKNYRARCRKGYCVRRRIRAPKKVEPAFIQLSKPCISDKECSIVKNYRARCRKGYCVRRRIR
notes: two copies of NCR2 linked in tandem by linker peptide APKKVEP (L1)

Assays:
Botrytis cinerea [1] = experiment: Detached lettuce leaf infection assay (in planta antifungal activity); type: in vivo; conditions: detached iceberg lettuce leaves, peptide 3, 6, and 12 μM drop inoculated, 48 hours
F. virguliforme [2] = experiment: Resazurin cell viability assay; type: cell-based, Fusarium virguliforme
Protocol: (§1) The antifungal and anti-oomycete activity was conducted as described previously (Spelbrink et al. 2004; Sagaram et al. 2011; Velivelli et al. 2018) with minor modifications. The antifungal and anti-oomycete activity of NCR peptides were determined in an in vitro assay using 96-well microtiter plates. Fifty microliters of each protein dilution (0, 0.1, 0.3, 0.7, 1.5, 3 and 6 μM) was added to each well of the microtiter plate containing 50 μL of (zoo)spore suspension prepared in 2×SFM at a final concentration of 10^5 (zoo)spores/ml. The plates were incubated at room temperature and the quantitative fungal growth inhibition was estimated by measuring the absorbance at 595 nm using a Tecan Infinite M200 Pro (Tecan Systems Inc., San Jose, CA) microplate reader at 48 hours. The fungal/oomycete cell viability/cell killing was determined by the resazurin cell viability assay. After incubation at 48 hours, 10 μl of 0.1% resazurin solution was added to each well and re-incubated overnight. A change from blue to pink color indicates reduction of resazurin and cell viability.

[3] = Protein-phospholipid overlay assay (PIP Strips); conditions: protein-lipid overlay, 1 μg/ml peptide, 100 pmol lipid per spot
Protocol: (§2) Briefly, lipid strips were blocked with 10 mL of blocking buffer, PBS-T/3% fat free BSA for 12-16 h at 4° C. with gentle agitation. […] After hybridization, protein solution was discarded and the strips were then washed with PBS-T three times with gentle agitation for 20 minutes each for 1 hour at room temperature. […] The lipid strips were washed with PBS-T two times with gentle agitation, for 15 minutes each wash, at room temperature. HRP-conjugated Mouse Anti-Rabbit IgG secondary antibody (GenScript Cat no A01827) diluted 1:4000 in blocking buffer was added to the lipid strips and incubated for 60 minutes at 4° C. After two washes with PBS-T, chemiluminescence was detected using SuperSignal® West Pico PLUS Sensitivity substrate kit (Thermo Scientific, Cat no: 34080 following the manufacturer's protocol.

[4] = Protein-phospholipid overlay assay (PIP Strips); conditions: protein-lipid overlay, 1 μg/ml peptide, 100 pmol lipid per spot; remark: listed apart in the source
Protocol: as §2

Botrytis cinerea [5] = conditions: for antifungal activity compared with the antifungal activity of NCR2 monomer: against B. cinerea
[6] = Protein-phospholipid overlay assay (PIP Strips); conditions: protein-lipid overlay, 1 μg/ml peptide, 100 pmol lipid per spot; remark: listed apart in the source
Protocol: as §2

F. graminearum = type: cell-based, Fusarium graminearum
P. capsici = experiment: Resazurin cell viability assay; type: cell-based, Phytophthora capsici
F. oxysporum [7] = test system: F. oxysporum
[8] = Protein-phospholipid overlay assay (PIP Strips); conditions: protein-lipid overlay, 1 μg/ml peptide, 100 pmol lipid per spot; remark: listed apart in the source
Protocol: as §2

[9] = Protein-phospholipid overlay assay (PIP Strips); conditions: protein-lipid overlay, 1 μg/ml peptide, 100 pmol lipid per spot; remark: listed apart in the source
Protocol: as §2

F. oxysporum [10] = experiment: Resazurin cell viability assay; type: cell-based, Fusarium oxysporum
Protocol: as §1

[11] = test system: Fusarium graminearum PH-1; type: cell-based; conditions: F. graminearum, absorbance at 595 nm at 48 hours
[12] = Protein-phospholipid overlay assay (PIP Strips), overall; conditions: protein-lipid overlay, 1 μg/ml peptide, 100 pmol lipid per spot
Protocol: as §2

[13] = test system: Phytophthora capsici LT263
[14] = Protein-phospholipid overlay assay (PIP Strips); conditions: protein-lipid overlay, 1 μg/ml peptide, 100 pmol lipid per spot; remark: listed apart in the source
Protocol: as §2

[15] = Protein-phospholipid overlay assay (PIP Strips); conditions: protein-lipid overlay, 1 μg/ml peptide, 100 pmol lipid per spot; remark: listed apart in the source
Protocol: as §2

[16] = Protein-phospholipid overlay assay (PIP Strips); conditions: protein-lipid overlay, 1 μg/ml peptide, 100 pmol lipid per spot; remark: listed apart in the source
Protocol: as §2

F. virguliforme [17] = test system: F. virguliforme
Fusarium species = type: cell-based, Fusarium sp.; conditions: against F. oxysporum, F. graminearum and F. virguliforme
[18] = B. cinerea, absorbance at 595 nm at 48 hours
[19] = P. capsici zoospores, absorbance at 595 nm at 48 hours

Molecule	size of disease lesions caused by Botrytis cinerea (Botrytis cinerea [1])	binding to PI(3,4)P2 [3]	binding to PI(4,5)P2 [4]	IC50 (Botrytis cinerea [5]; 48 h)	MIC (Botrytis cinerea [5]; 48 h)	binding to PI(3,5)P2 [6]	concentration of cell death (resazurin assay) (P. capsici)	binding to PI(4)P [8]	binding to PI(3,4,5)P3 [9]	IC50 [11]	binding to phospholipids (overall) [12]	IC50 ([13]; 48 h)	MIC ([13]; 48 h)	binding to PI(5)P [14]	binding to phosphatidic acid (PA) [15]	binding to PI(3)P [16]	IC50 (Botrytis cinerea [5]; [18])	MIC (Botrytis cinerea [5]; [18])	antifungal activity compared with the antifungal activity of NCR2 monomer (Botrytis cinerea [5])	IC50 (F. oxysporum [7])	other results
CC[C@H](C)[C@H](NC(=O)[C@H](CCCNC(=N)N)NC(=O)[C@H](CCCNC(=N)N)NC(=O)[C@H](CCCNC(=N)N)NC(=O)[C@@H](NC(=O)[C@H](CS)NC(=O)[C@H](Cc1ccc(O)cc1)NC(=O)CNC(=O)[C@H](CCCCN)NC(=O)[C@H](CCCNC(=N)N)NC(=O)[C@H](CS)NC(=O)[C@H](CCCNC(=N)N)NC(=O)[C@H](C)NC(=O)[C@H](CCCNC(=N)N)NC(=O)[C@H](Cc1ccc(O)cc1)NC(=O)[C@H](CC(N)=O)NC(=O)[C@H](CCCCN)NC(=O)[C@@H](NC(=O)[C@@H](NC(=O)[C@H](CO)NC(=O)[C@H](CS)NC(=O)[C@H](CCC(=O)O)NC(=O)[C@H](CCCCN)NC(=O)[C@H](CC(=O)O)NC(=O)[C@H](CO)NC(=O)[C@@H](NC(=O)[C@H](CS)NC(=O)[C@@H]1CCCN1C(=O)[C@H](CCCCN)NC(=O)[C@H](CO)NC(=O)[C@H](CC(C)C)NC(=O)[C@H](CCC(N)=O)NC(=O)[C@@H](NC(=O)[C@H](Cc1ccccc1)NC(=O)[C@H](C)N)[C@@H](C)CC)[C@@H](C)CC)[C@@H](C)CC)C(C)C)C(C)C)C(=O)N[C@@H](CCCNC(=N)N)C(=O)O [NCR2] (H-AFIQLSKPCISDKECSIVKNYRARCRKGYCVRRRIR-OH; N-terminus and C-terminus assumed)	smaller lesions compared to no peptide control	bound weakly	bound weakly	1500 nM	2 to 3 µM	strongly binds	3 µM	bound weakly	bound weakly	1500 to 2000 nM	bind to multiple phospholipids	2000 nM	3 µM (≈ 13 µg/mL)	bound weakly	bound weakly	bound weakly	–	–	–	–	concentration at which cells were killed (resazurin assay) (F. virguliforme [2]): 3 µM; concentration at which cells were killed (resazurin assay) (F. graminearum): 3 µM; IC50 (F. oxysporum [7]; 48 h): 500 nM; concentration at which cells were killed (resazurin assay) (F. oxysporum [10]): 1.5 µM; MIC (F. virguliforme [17]; 48 h): 3 µM (≈ 13 µg/mL)
CC[C@H](C)[C@H](NC(=O)[C@H](CCCNC(=N)N)NC(=O)[C@H](CCCNC(=N)N)NC(=O)[C@H](CCCNC(=N)N)NC(=O)[C@@H](NC(=O)[C@H](CS)NC(=O)[C@H](Cc1ccc(O)cc1)NC(=O)CNC(=O)[C@H](CCCCN)NC(=O)[C@H](CCCNC(=N)N)NC(=O)[C@H](CS)NC(=O)[C@H](CCCNC(=N)N)NC(=O)[C@H](C)NC(=O)[C@H](CCCNC(=N)N)NC(=O)[C@H](Cc1ccc(O)cc1)NC(=O)[C@H](CC(N)=O)NC(=O)[C@H](CCCCN)NC(=O)[C@@H](NC(=O)[C@@H](NC(=O)[C@H](CO)NC(=O)[C@H](CS)NC(=O)[C@@H]1CCCN1C(=O)CNC(=O)[C@H](CCCCN)NC(=O)[C@H](Cc1ccccc1)NC(=O)[C@H](CCCCN)NC(=O)[C@H](Cc1c[nH]cn1)NC(=O)[C@H](CS)NC(=O)[C@@H]1CCCN1C(=O)[C@H](CCCCN)NC(=O)[C@H](CO)NC(=O)[C@H](CC(C)C)NC(=O)[C@H](CCC(N)=O)NC(=O)[C@@H](NC(=O)[C@H](Cc1ccccc1)NC(=O)[C@H](C)N)[C@@H](C)CC)[C@@H](C)CC)C(C)C)C(C)C)C(=O)N[C@@H](CCCNC(=N)N)C(=O)O [NCR2_V1] (H-AFIQLSKPCHKFKGPCSIVKNYRARCRKGYCVRRRIR-OH)	much smaller lesions; also recorded: effective in reducing the size of disease lesions	weakly	weakly	1500 nM	2 to 3 µM	weakly	3 µM	bound tightly; also recorded: greater affinity than the wild-type NCR2 peptide	No binding	–	bind to multiple phospholipids	2000 nM	3 µM (≈ 13.3 µg/mL)	bound tightly; also recorded: greater affinity than the wild-type NCR2 peptide	weakly	bound tightly; also recorded: greater affinity than the wild-type NCR2 peptide	–	–	–	–	size of disease lesions caused by Botrytis cinerea (Botrytis cinerea [1]; listed as NCR2 V1): effective in reducing the sizes of disease lesions
CC[C@H](C)[C@H](NC(=O)[C@H](CCCNC(=N)N)NC(=O)[C@H](CCCNC(=N)N)NC(=O)[C@H](CCCNC(=N)N)NC(=O)[C@@H](NC(=O)[C@H](CS)NC(=O)[C@H](Cc1ccc(O)cc1)NC(=O)CNC(=O)[C@H](CCCCN)NC(=O)[C@H](CCCNC(=N)N)NC(=O)[C@H](CS)NC(=O)[C@H](CCCNC(=N)N)NC(=O)[C@H](C)NC(=O)[C@H](CCCNC(=N)N)NC(=O)[C@H](Cc1ccc(O)cc1)NC(=O)[C@H](CC(N)=O)NC(=O)[C@H](CCCCN)NC(=O)[C@@H](NC(=O)[C@@H](NC(=O)[C@H](CO)NC(=O)[C@H](CS)NC(=O)[C@H](CCC(=O)O)NC(=O)[C@H](CCCCN)NC(=O)[C@H](CC(=O)O)NC(=O)[C@H](CO)NC(=O)[C@@H](NC(=O)[C@H](CS)NC(=O)[C@@H]1CCCN1C(=O)[C@H](CCCCN)NC(=O)[C@H](CO)NC(=O)[C@H](CC(C)C)NC(=O)[C@H](CCC(N)=O)NC(=O)[C@@H](NC(=O)[C@H](CS)NC(=O)[C@H](Cc1ccccc1)NC(=O)[C@H](C)N)[C@@H](C)CC)[C@@H](C)CC)[C@@H](C)CC)C(C)C)C(C)C)C(=O)N[C@@H](CCCNC(=N)N)C(=O)N[C@@H](CS)C(=O)O [NCR2_V2] (H-AFCIQLSKPCISDKECSIVKNYRARCRKGYCVRRRIRC-OH; N-terminus and C-terminus assumed)	much smaller lesions; also recorded: effective in reducing the sizes of disease lesions	–	–	2000 nM	3 µM (≈ 13.6 µg/mL)	–	6 µM	–	–	–	not found to bind to any phospholipids; also recorded: does not bind to any Phospholipids	3000 nM	6 µM (≈ 27.1 µg/mL)	–	–	–	–	–	–	–	binding to phospholipids (overall) ([12]; listed as NCR2 V2): does not bind to any phospholipids
AFIQLSKPCISDKECSIVKNYRARCRKGYCVRRRIRGGKAGKKAPKAFIQLSKPCISDKECSIVKNYRARCRKGYCVRRRIR [NCR2-L2-NCR2]	–	–	–	–	–	–	–	–	–	1000 nM	–	–	–	–	–	–	750 nM	1.5 µM	significant increase	300 nM	MIC (F. oxysporum [7]): 0.75 µM; MIC [11]: 1.5 µM; increase in the antifungal activity of dimer compared with the monomer (Fusarium species): Two-fold increase; MIC (F. virguliforme [17]): 1.5 µM
B1	–	–	–	–	–	–	3 µM	–	–	1000 nM	–	–	–	–	–	–	750 nM	1.5 µM	significant increase	300 nM	MIC (F. oxysporum [7]): 0.75 µM; MIC [11]: 1.5 µM; IC50 [13, 19]: 2000 nM; MIC [13, 19]: 3 µM; increase in the antifungal activity of dimer compared with the monomer (Fusarium species): Two-fold increase; MIC (F. virguliforme [17]): 1.5 µM
